Measured values as given in patent US11648248B1 (King Abdulaziz University, priority 2022, dated 2023).
Converted amounts (≈) assume the structure as drawn. Read-outs that look alike come from different tables or passages of the source.

How the values were obtained:
Experiment in all cases: MIC broth microdilution, initial screening
Type in all cases: cell-based
[1] = tested on: Escherichia coli BW25113 (wild-type); details: for MIC: Escherichia coli, E. coli BW25113, 18-20 hours, read-out: minimum inhibitory concentration (MIC) E. coli (Wild-type)
Method: (§1) The minimum inhibitory concentrations (MICs) of the tested compounds and control drugs (linezolid, vancomycin, gentamicin (antibiotics) and fluconazole and 5-fluorocytosine (5-FC) (antifungal drugs)) were determined using the broth microdilution method, according to guidelines outlined by the Clinical and Laboratory Standards Institute (CLSI, Clinical and Laboratory Standards Institute, Methods for antimicrobial susceptibility testing of anaerobic bacteria; approved standard, M11-A8. 8th ed., 2012; CLSI, Clinical and Laboratory Standards Institute. M27-A3 Reference Method for Broth Dilution Antifungal Susceptibility Testing of Yeasts; Approved Standard—Third Edition, Wayne, Pa., 2008) against clinically-relevant bacterial (methicillin-resistant Staphylococcus aureus (MRSA), Escherichia coli, and C. difficile strains) and fungal (Candida albicans) strains. S. aureus and E. coli were grown aerobically overnight on tryptone soy agar plates at 37° C. C. difficile was grown anaerobically on brain heart infusion supplemented agar at 37° C. for 48 hours. C. albicans was grown aerobically overnight on yeast peptone dextrose (YPD) agar plate at 35° C. Afterwards, a bacterial solution equivalent to 0.5 McFarland standard was prepared and diluted in cation-adjusted Mueller-Hinton broth (CAMHB) (for S. aureus and E. coli) to achieve a bacterial concentration of about 5×10^5 CFU/mL. C. difficile was diluted in brain heart infusion supplemented broth, supplemented with yeast extract, hemin and vitamin K to achieve a bacterial concentration of about 5×10^5 CFU/mL. C. albicans was diluted in Roswell Park Memorial Institute (RPMI 1640) medium with glutamine and without bicarbonate (GIBCO by Life Technologies, Green Island, N.Y., USA) which was buffered to pH 7.0 with 0.165 M of [3-(N-morpholino) propanesulfonic acid] (MOPS) (DOT Scientific Inc., Burton, Mich., USA) to achieve a fungal concentration of about 1.5×10^3 CFU/mL. Compounds and control drugs were added in the first row of the 96-well plates and serially diluted with the corresponding media containing bacteria. Plates were then incubated aerobically at 37° C. for 18-20 hours (for S. aureus and E. coli). C. difficile was incubated anaerobically at 37° C. for 48 hours. C. albicans was incubated aerobically at 37° C. for 24 hours.
(§2) The minimum inhibitory concentrations (MICs) of the tested compounds and control drugs; linezolid, vancomycin, gentamicin (antibiotics) and fluconazole and 5-fluorocytosine (5-FC) (antifungal drugs) were determined using the broth microdilution method, according to guidelines outlined by the Clinical and Laboratory Standards Institute (CLSI)^1, 2, 3 against clinically-relevant bacterial (methicillin-resistant Staphylococcus aureus (MRSA), Escherichia coli and Clostridium difficile strains) and fungal (Candida albicans) strain. S. aureus and E. coli were grown aerobically overnight on tryptone soy agar plates at 37° C. C. difficile was grown anaerobically on brain heart infusion supplemented agar at 37° C. for 48 hours. C. albicans was grown aerobically overnight on yeast peptone dextrose (YPD) agar plate at 35° C. Afterwards, a bacterial solution equivalent to 0.5 McFarland standard was prepared and diluted in cation-adjusted Mueller-Hinton broth (CAMHB) (for S. aureus and E. coli) to achieve a bacterial concentration of about 5×10^5 CFU/mL. C. difficile was diluted in brain heart infusion supplemented broth, supplemented with yeast extract, hemin and vitamin K to achieve a bacterial concentration of about 5×10^5 CFU/mL. C. albicans was diluted in Roswell Park Memorial Institute (RPMI 1640) medium with glutamine and without bicarbonate (GIBCO by Life Technologies, Green Island, N.Y., USA) which was buffered to pH 7.0 with 0.165 M of [3-(N-morpholino) propanesulfonic acid]

[2] = tested on: C. albicans (ATCC 64124); details: Candida albicans, read-out: minimum inhibitory concentration (MIC) C. albicans (ATCC 64124)
Method: as §1, §2

[3] = tested on: Methicillin-resistant Staphylococcus aureus NRS384 (MRSA USA300)
Method: as §1, §2

[4] = tested on: Escherichia coli JW55031 (TolC mutant); details: for MIC: Escherichia coli, read-out: minimum inhibitory concentration (MIC) E. coli (TolC mutant), E. coli JW55031, 18-20 hours
Method: as §1, §2

[5] = tested on: Clostridium difficile (ATCC-BAA1870); details: anaerobic, 48 hours; for MIC: Clostridioides difficile, ATCCBAA1870, 48 h, read-out: minimum inhibitory concentration (MIC) C. difficile (ATCC-BAA1870)
Method: as §1, §2

[6] = read-out: minimum inhibitory concentration (MIC) S. aureus (MRSA USA300), MRSA NRS384 (USA300), broth microdilution, 18-20 hours

Compound	MIC [1]	MIC ([2]; ATCC64124, 24 h)	MIC ([3]; MRSA|NRS384|USA300, read-out: minimum inhibitory concentration (MIC) S. aureus (MRSA USA300), MRSA NRS384 (USA300), broth microdilution, 18-20 hours)	MIC [4]	minimum inhibitory concentration (MIC) C. difficile (ATCC-BAA1870) [5]	MIC ([2]; ATCC64124, RPMI 1640, 24 hours)	MIC [3, 6]	MIC [5]	minimum inhibitory concentration (MIC) E. coli (Wild-type) ([1]; 18-20 hours)	minimum inhibitory concentration (MIC) E. coli (TolC mutant) ([4]; E. coli JW55031, 18-20 hours)
Cc1cc(Cl)ccc1NC(=O)Nc1ccc(-c2ccc(=O)[nH]n2)cc1	> 128 mg/L	> 128 mg/L	> 128 mg/L	64 mg/L (≈ 180 µM)	64 mg/L (≈ 180 µM)	–	–	–	–	–
Nc1nc(=O)[nH]cc1F [5-Fluorocytosine, 5-fluorocytosine, reference compound]	–	–	–	–	–	0.25 mg/L (≈ 1.94 µM)	–	–	–	–
OC(Cn1cncn1)(Cn1cncn1)c1ccc(F)cc1F [Fluconazole, reference compound]	–	–	–	–	–	> 128 mg/L	–	–	–	–
Cc1cccc(NC(=O)Nc2ccc(Oc3ccc(=O)[nH]n3)cc2)c1 [MY32, 1-(4-((6-oxo-1,6-dihydropyridazin-3-yl)oxy)phenyl)-3-(m-tolyl)urea]	> 128 mg/L	> 128 mg/L	–	> 128 mg/L	–	–	> 128 mg/L	> 128 mg/L	–	–
COc1ccc(NC(=O)Nc2cccc(-c3ccc(=O)[nH]n3)c2)cc1 [MY33, 1-(4-methoxyphenyl)-3-(3-(6-oxo-1,6-dihydropyridazin-3-yl)phenyl)urea]	> 128 mg/L	> 128 mg/L	–	> 128 mg/L	–	–	> 128 mg/L	> 128 mg/L	–	–
O=C(Nc1cccc(Nc2ccc(=O)[nH]n2)c1)Nc1ccc(Cl)c(Cl)c1 [MY49, 1-(3,4-dichlorophenyl)-3-(3-((6-oxo-1,6-dihydropyridazin-3-yl)amino)phenyl)urea]	> 128 mg/L	> 128 mg/L	–	> 128 mg/L	–	–	> 128 mg/L	> 128 mg/L	–	–
O=C(Nc1cccc(Nc2ccc(=O)[nH]n2)c1)Nc1ccc(Cl)c(C(F)(F)F)c1 [MY50, 1-(4-chloro-3-(trifluoromethyl)phenyl)-3-(3-((6-oxo-1,6-dihydropyridazin-3-yl)amino)phenyl)urea]	> 128 mg/L	> 128 mg/L	–	128 mg/L (≈ 302 µM)	–	–	> 128 mg/L	> 128 mg/L	–	–
Gentamicin [reference compound]	–	–	–	–	–	–	–	–	0.5 mg/L	0.25 mg/L
